The results in this text go back to patent US20240158394A1, “NEK7 INHIBITORS” (Halia Therapeutics, Inc., priority 2022, published 2024).

In the test the target is full-length recombinant human NEK7 (Homo sapiens (Human), UniProt Q8TDX7). Kind of test: NEK7 Enzymatic Assay. It counts as biochemical. The note with it: casein substrate, [33P]-ATP, 2 hours at room temperature. As for the experimental part:
Casein substrate (from bovine milk, hydrolyzed and partially dephosphorylated mixture of α, β and κ caseins, obtained from Sigma Aldrich, catalogue #C4765, diluted in distilled water to a final concentration of 1 mg/mL) and full-length recombinant human NEK7 (expressed by baculovirus in Sf9 insect cells using a N-terminal GST tag, obtained from SignalChem, catalogue #N09-10G, 0.1 μg/μL) were mixed in assay buffer (20 mM HEPES pH 7.5, 10 mM MgCl2, 1 mM EGTA, 0.02% Brij35, 0.02 mg/mL BSA, 0.1 mM Na3VO4, 2 mM DTT, 1% DMSO). Compounds of interest (serial 3-fold dilution in DMSO from 10 μM to 0.5 nM) or vehicle (1% DMSO) were dispensed into the kinase reaction mixture by Acoustic technology (Echo550; nanoliter range). After incubation at room temperature for 20 minutes, the kinase reaction was initiated by addition of [^33P]-ATP (specific activity 10 μCi/μL) and the mixture was incubated at room temperature for 2 hours. The reaction was then stopped by spotting the reaction mixture on strips of phosphocellulose P81 paper. Following washing, the radioactivity of the P81 paper was measured and kinase activity data were expressed as the percent remaining kinase activity in test samples compared to vehicle reactions. IC50 values and curve fits were obtained using Prism (GraphPad Software).

Usually pIC50 stands for the IC50 on a negative log10 scale, so that one unit is a factor of ten.

pIC50: −log10 of the molar value.

Chain of full-length recombinant human NEK7 (Q8TDX7 whole entry): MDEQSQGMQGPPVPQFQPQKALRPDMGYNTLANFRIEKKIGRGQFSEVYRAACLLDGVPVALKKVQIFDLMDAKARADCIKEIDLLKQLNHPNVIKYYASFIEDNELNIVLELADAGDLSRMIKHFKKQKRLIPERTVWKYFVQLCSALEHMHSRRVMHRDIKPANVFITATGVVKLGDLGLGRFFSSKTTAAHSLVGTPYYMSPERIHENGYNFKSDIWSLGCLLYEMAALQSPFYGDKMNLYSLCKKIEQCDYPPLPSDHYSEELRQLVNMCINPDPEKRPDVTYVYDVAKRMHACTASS

On to `CN1CCC(Oc2ccc(NC(=O)Nc3ccc(-c4cn(C5CC5)c5ncnc(N)c45)c4c3OCC4)cc2C(F)(F)F)CC1` [Example I-55, 1-(4-(4-amino-7-cyclopropyl-7H-pyrrolo[2,3-d]pyrimidin-5-yl)-2,3-dihydrobenzofuran-7-yl)-3-(4-((1-methylpiperidin-4-yl)oxy)-3-(trifluorometh-yl)phenyl)urea], for which the negative-log IC50 (pIC50) is 6.30 to 6.70. Consider `CCN1CCC(Oc2ccc(NC(=O)Nc3ccc(-c4cn(C5CC5)c5ncnc(N)c45)c4c3OC(C)C4)cc2C(F)(F)F)CC1` (centres unmarked) [Example I-121, 1-(4-(4-amino-7-cyclopropyl-7H-pyrrolo[2,3-d]pyrimidin-5-yl)-2-methyl-2,3-dihydro-benzofuran-7-yl)-3-(4-((1-ethylpiperidin-4-yl)oxy)-3-(trifluoromethyl)phenyl)urea], for which the pIC50 is less than 5.70. For `Nc1ncnc2c1c(-c1cnc(NC(=O)Nc3cc(C4(C(F)(F)F)CC4)on3)c3nccn13)cn2C1CC1` [Example I-50, 1-(5-(4-amino-7-cyclopropyl-7H-pyrrolo[2,3-d]pyrimidin-5-yl)imidazo[1,2-a]pyrazin-8-yl)-3-(5-(1-(trifluoromethyl)-cyclopropyl)isoxazol-3-yl)urea], the pIC50 was less than 5.70. Regarding `Cc1cc(NC(=O)Nc2ccc(-c3cn(C4CC4)c4ncnc(N)c34)n3ccnc23)no1` [Example I-24, 1-(5-(4-amino-7-cyclopropyl-7H-pyrrolo[2,3-d]pyrimidin-5-yl)imidazo[1,2-a]pyridin-8-yl)-3-(5-methylisoxazol-3-yl)urea], the pIC50 is less than 5.70. Regarding `CC1(C)Cc2c(-c3cn(C4CC4)c4ncnc(N)c34)ccc(NC(=O)Nc3cc(C4(C(F)(F)F)CC4)on3)c2O1` [Example I-59, 1-(4-(4-amino-7-cyclopropyl-7H-pyrrolo[2,3-d]pyrimidin-5-yl)-2,2-dimethyl-2,3-dihydrobenzofuran-7-yl)-3-(5-(1-(trifluoromethyl)cyclo-propyl)isoxazol-3-yl)urea], the pIC50 is 6.30 to 6.70. Take `CCN1CCN(Cc2ccc(NC(=O)Nc3ccc(-c4cn(C5CC5)c5ncnc(N)c45)c4c3OCC4)cc2C(F)(F)F)CC1` [Example I-54, 1-(4-(4-amino-7-cyclopropyl-7H-pyrrolo[2,3-d]pyrimidin-5-yl)-2,3-dihydrobenzofuran-7-yl)-3-(4-((4-ethylpiperazin-1-yl)methyl)-3-(trifluorometh-yl)phenyl)urea]: the pIC50 is greater than 6.70. Turning to `Nc1ncnc2c1c(-c1ccc(NC(=O)Nc3cc(C4(C(F)(F)F)CC4)on3)c3nccn13)cn2-c1cccnc1` [Example I-91, 1-(5-(4-amino-7-(pyridin-3-yl)-7H-pyrrolo[2,3-d]pyrimidin-5-yl)imidazo[1,2-a]pyridin-8-yl)-3-(5-(1-(trifluoromethyl)-cyclopropyl)isoxazol-3-yl)urea], the pIC50 is greater than 6.70. As for `Nc1ncnc2c1c(-c1ccc(NC(=O)Nc3cc(C4(C(F)(F)F)CC4)on3)c3nccn13)cn2C1CCC1` [Example I-84, 1-(5-(4-amino-7-cyclobutyl-7H-pyrrolo[2,3-d]pyrimidin-5-yl)imidazo[1,2-a]pyridin-8-yl)-3-(5-(1-(trifluoromethyl)-cyclopropyl)isoxazol-3-yl)urea], the pIC50 is greater than 6.70. As for `CN1CCN(Cc2ccc(NC(=O)Nc3ccc(-c4cn(C5CCNCC5)c5ncnc(N)c45)n4ccnc34)cc2C(F)(F)F)CC1` [Example I-133, 1-(5-(4-amino-7-(piperidin-4-yl)-7H-pyrrolo[2,3-d]pyr-imidin-5-yl)imidazo[1,2-a]-pyridin-8-yl)-3-(4-((4-methyl-piperazin-1-yl)methyl)-3-(trifluoromethyl)phenyl)urea], the figure is greater than 6.70; as for `CC(C)c1cc(NC(=O)Nc2ccc(-c3cn(C4CC4)c4ncnc(N)c34)n3ccnc23)no1` [Example I-26, 1-(5-(4-amino-7-cyclopropyl-7H-pyrrolo[2,3-d]pyrimidin-5-yl)imidazo[1,2-a]pyridin-8-yl)-3-(5-isopropylisoxazol-3-yl)urea], 6.30 to 6.70; as for `CN1CCC(Oc2ccc(NC(=O)Nc3ccc(-c4cn(C5CC5)c5ncnc(N)c45)c4ccncc34)cc2C(F)(F)F)CC1` [Example I-10, 1-(5-(4-amino-7-cyclopropyl-7H-pyrrolo[2,3-d]pyrimidin-5-yl)isoquinolin-8-yl)-3-(4-((1-methylpiperidin-4-yl)oxy)-3-(trifluoromethyl)phenyl)urea], greater than 6.70. Take `Nc1ncnc2c1c(-c1ccc(NC(=O)Nc3cc(C4(C(F)(F)F)CC4)on3)c3nc(C(F)(F)F)cn13)cn2C1CC1` [Example I-46, 1-(5-(4-amino-7-cyclopropyl-7H-pyrrolo[2,3-d]pyrimidin-5-yl)-2-(trifluoromethyl)-imidazo[1,2-a]pyridin-8-yl)-3-(5-(1-(trifluoromethyl)cyclo-propyl)isoxazol-3-yl)urea]: the pIC50 is less than 5.70. As for `CC(C)(c1cc(NC(=O)Nc2ccc(-c3cn(C4CC4)c4ncnc(N)c34)n3ccnc23)on1)C(F)(F)F` [Example I-21, 1-(5-(4-amino-7-cyclopropyl-7H-pyrrolo[2,3-d]pyrimidin-5-yl)imidazo[1,2-a]pyridin-8-yl)-3-(3-(1,1,1-trifluoro-2-methylpropan-2-yl)isoxazol-5-yl)urea], the pIC50 was greater than 6.70.

Consider `Nc1ncnc2c1c(-c1ccc(NC(=O)Nc3ccc(CN4CCN(CCF)CC4)c(C(F)(F)F)c3)c3nccn13)cn2C1CC1` [Example I-41, 1-(5-(4-amino-7-cyclopropyl-7H-pyrrolo[2,3-d]pyrimidin-5-yl)imidazo[1,2-a]pyridin-8-yl)-3-(4-((4-(2-fluoroethyl)-piperazin-1-yl)methyl)-3-(trifluoromethyl)phenyl)urea], for which the pIC50 was greater than 6.70. The result for `Cc1ccc(-n2nc(C(C)(C)C)cc2NC(=O)Nc2ccc(-c3cn(C4CC4)c4ncnc(N)c34)n3ccnc23)cc1` [Example I-12, 1-(5-(4-amino-7-cyclopropyl-7H-pyrrolo[2,3-d]pyrimidin-5-yl)imidazo[1,2-a]pyridin-8-yl)-3-(3-(tert-butyl)-1-(p-tolyl)-1H-pyrazol-5-yl)urea] reads 6.30 to 6.70; that for `CN1CCC(n2cc(-c3ccc(NC(=O)Nc4cc(C5(C(F)(F)F)CC5)on4)c4nccn34)c3c(N)ncnc32)CC1` [Example I-95, 1-(5-(4-amino-7-(1-methyl-piperidin-4-yl)-7H-pyrrolo-[2,3-d]pyrimidin-5-yl)imid-azo[1,2-a]pyridin-8-yl)-3-(5-(1-(trifluoromethyl)cyclo-propyl)isoxazol-3-yl)urea], 6.30 to 6.70. Turning to `CC(C)(O)Cn1cc(-c2ccc(NC(=O)Nc3cc(C4(C(F)(F)F)CC4)on3)c3nccn23)c2c(N)ncnc21` [Example I-86, 1-(5-(4-amino-7-(2-hydroxy-2-methylpropyl)-7H-pyrrolo-[2,3-d]pyrimidin-5-yl)-imidazo[1,2-a]pyridin-8-yl)-3-(5-(1-(trifluoromethyl)-cyclopropyl)isoxazol-3-yl)urea], the pIC50 was greater than 6.70. Consider `CC(C)n1cc(-c2ccc(NC(=O)Nc3cc(C4(C(F)(F)F)CC4)on3)c3nccn23)c2c(N)ncnc21` [Example I-83, 1-(5-(4-amino-7-isopropyl-7H-pyrrolo[2,3-d]pyrimidin-5-yl)imidazo[1,2-a]pyridin-8-yl)-3-(5-(1-(trifluorometh-yl)cyclopropyl)isoxazol-3-yl)-urea], for which the pIC50 was greater than 6.70. As for `Nc1ncnc2c1c(-c1ccc(NC(=O)Nc3cc(C4(C(F)(F)F)CCC4)on3)c3nccn13)cn2C1CC1` [Example I-33, 1-(5-(4-amino-7-cyclopropyl-7H-pyrrolo[2,3-d]pyrimidin-5-yl)imidazo[1,2-a]pyridin-8-yl)-3-(5-(1-(trifluoromethyl)-cyclobutyl)isoxazol-3-yl)urea], the pIC50 is 6.30 to 6.70.

`CC(C)(C)c1cc(NC(=O)Nc2ccc(-c3cn(C4CC4)c4ncnc(N)c34)c3cccnc23)on1` [Example I-2, 1-(5-(4-amino-7-cyclopropyl-7H-pyrrolo[2,3-d]pyrimidin-5-yl)quinolin-8-yl)-3-(3-(tert-butyl)isoxazol-5-yl)urea]: the pIC50 is less than 5.70. Take `CC(C)(c1cc(NC(=O)Nc2ccc(-c3cn(C4CC4)c4ncnc(N)c34)n3ccnc23)no1)C(F)(F)F` [Example I-31, 1-(5-(4-amino-7-cyclopropyl-7H-pyrrolo[2,3-d]pyrimidin-5-yl)imidazo[1,2-a]pyridin-8-yl)-3-(5-(1,1,1-trifluoro-2-methylpropan-2-yl)isoxazol-3-yl)urea]: the pIC50 was greater than 6.70. `CC(C)n1cc(-c2ccc(NC(=O)Nc3ccc(OC4CCN(C)CC4)c(C(F)(F)F)c3)c3nccn23)c2c(N)ncnc21` [Example I-135, 1-(5-(4-amino-7-isopropyl-7H-pyrrolo[2,3-d]pyrimidin-5-yl)imidazo[1,2-a]pyridin-8-yl)-3-(4-((1-methylpiperidin-4-yl)oxy)-3-(trifluoromethyl)-phenyl)urea]: the pIC50 is greater than 6.70.

On to `Nc1ncnc2c1c(-c1ccc(NC(=O)Nc3cc(C4(C(F)(F)F)CC4)no3)c3cnccc13)cn2C1CC1` [Example I-7, 1-(5-(4-amino-7-cyclopropyl-7H-pyrrolo[2,3-d]pyrimidin-5-yl)isoquinolin-8-yl)-3-(3-(1-(trifluoromethyl)cyclopropyl)-isoxazol-5-yl)urea], for which the pIC50 was 5.70 to 6.30.
